From publication PMC4858680, “A platinum-based hybrid drug design approach to circumvent acquired resistance to molecular targeted tyrosine kinase inhibitors” (Scientific Reports, 2016)

Columns and labels:
[1] = biological target: T1, EPHB1 (Homo sapiens, UniProt P54762); experiment: biochemical; conditions: read-out: Percent control
T1 sequence (P54762 18-984): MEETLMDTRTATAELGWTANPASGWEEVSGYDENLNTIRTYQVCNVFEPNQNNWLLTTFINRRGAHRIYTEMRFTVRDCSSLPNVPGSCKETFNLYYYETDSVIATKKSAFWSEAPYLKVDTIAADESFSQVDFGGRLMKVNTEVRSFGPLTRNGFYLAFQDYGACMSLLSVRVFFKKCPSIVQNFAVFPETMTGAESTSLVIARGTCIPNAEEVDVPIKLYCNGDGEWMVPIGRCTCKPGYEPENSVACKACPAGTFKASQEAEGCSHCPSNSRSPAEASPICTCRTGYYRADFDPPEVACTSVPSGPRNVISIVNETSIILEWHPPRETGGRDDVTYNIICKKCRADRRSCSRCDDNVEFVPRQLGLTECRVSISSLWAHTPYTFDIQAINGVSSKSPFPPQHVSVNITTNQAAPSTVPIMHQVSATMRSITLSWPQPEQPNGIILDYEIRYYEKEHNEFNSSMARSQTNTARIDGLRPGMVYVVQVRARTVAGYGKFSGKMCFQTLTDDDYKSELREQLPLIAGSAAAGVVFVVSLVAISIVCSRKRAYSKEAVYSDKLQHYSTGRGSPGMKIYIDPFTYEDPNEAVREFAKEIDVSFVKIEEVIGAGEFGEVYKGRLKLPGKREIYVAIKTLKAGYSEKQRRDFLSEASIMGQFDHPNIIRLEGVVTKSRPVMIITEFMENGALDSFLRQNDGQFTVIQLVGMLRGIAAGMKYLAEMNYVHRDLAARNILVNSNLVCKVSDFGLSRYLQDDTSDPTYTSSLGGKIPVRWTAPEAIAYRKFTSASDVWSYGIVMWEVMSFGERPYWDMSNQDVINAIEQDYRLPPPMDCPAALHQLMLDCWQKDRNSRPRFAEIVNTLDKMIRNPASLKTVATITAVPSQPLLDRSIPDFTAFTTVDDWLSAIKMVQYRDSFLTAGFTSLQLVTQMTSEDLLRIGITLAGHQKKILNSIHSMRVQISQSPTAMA

[2] = biological target: PDGFRB (Homo sapiens, UniProt P09619); experiment: biochemical; conditions: read-out: Percent control
[3] = biological target: T2, MET(M1250T) (Homo sapiens, UniProt P08581, M1250T); experiment: biochemical; conditions: read-out: Percent control
[4] = biological target: T3, FLT3 (Homo sapiens, UniProt P36888); experiment: biochemical; conditions: read-out: Percent control
T3 sequence (P36888 27-993): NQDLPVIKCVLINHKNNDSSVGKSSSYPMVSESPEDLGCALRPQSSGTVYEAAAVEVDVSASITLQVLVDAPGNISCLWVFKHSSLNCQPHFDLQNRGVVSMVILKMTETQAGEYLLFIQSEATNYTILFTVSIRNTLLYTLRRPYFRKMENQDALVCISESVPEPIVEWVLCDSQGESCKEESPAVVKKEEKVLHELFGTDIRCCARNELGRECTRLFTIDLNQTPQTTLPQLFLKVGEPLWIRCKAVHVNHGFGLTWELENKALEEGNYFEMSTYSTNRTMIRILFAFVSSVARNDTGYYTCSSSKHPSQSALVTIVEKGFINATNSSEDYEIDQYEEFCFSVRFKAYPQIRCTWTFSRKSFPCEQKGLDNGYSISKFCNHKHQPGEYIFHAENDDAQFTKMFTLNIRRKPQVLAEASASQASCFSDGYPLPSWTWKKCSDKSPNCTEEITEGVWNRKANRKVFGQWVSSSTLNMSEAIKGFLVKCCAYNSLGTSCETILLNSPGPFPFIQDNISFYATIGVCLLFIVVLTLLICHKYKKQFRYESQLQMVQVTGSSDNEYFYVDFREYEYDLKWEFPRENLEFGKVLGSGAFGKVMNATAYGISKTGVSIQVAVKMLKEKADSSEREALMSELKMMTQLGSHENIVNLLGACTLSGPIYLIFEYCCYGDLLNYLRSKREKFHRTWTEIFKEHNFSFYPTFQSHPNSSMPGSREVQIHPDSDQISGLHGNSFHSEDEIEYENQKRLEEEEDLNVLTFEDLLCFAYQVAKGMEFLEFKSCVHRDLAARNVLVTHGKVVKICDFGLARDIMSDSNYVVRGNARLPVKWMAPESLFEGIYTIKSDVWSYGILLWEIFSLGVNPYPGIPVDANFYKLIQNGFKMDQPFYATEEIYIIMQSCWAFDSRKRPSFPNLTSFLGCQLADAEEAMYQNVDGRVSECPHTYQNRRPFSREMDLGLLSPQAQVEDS

[5] = biological target: FYN (Homo sapiens, UniProt P06241); experiment: biochemical; conditions: read-out: Percent control
[6] = biological target: T2, MET(M1250T); conditions: 10 μM

T2 sequence (P08581 25-1390 M1250T): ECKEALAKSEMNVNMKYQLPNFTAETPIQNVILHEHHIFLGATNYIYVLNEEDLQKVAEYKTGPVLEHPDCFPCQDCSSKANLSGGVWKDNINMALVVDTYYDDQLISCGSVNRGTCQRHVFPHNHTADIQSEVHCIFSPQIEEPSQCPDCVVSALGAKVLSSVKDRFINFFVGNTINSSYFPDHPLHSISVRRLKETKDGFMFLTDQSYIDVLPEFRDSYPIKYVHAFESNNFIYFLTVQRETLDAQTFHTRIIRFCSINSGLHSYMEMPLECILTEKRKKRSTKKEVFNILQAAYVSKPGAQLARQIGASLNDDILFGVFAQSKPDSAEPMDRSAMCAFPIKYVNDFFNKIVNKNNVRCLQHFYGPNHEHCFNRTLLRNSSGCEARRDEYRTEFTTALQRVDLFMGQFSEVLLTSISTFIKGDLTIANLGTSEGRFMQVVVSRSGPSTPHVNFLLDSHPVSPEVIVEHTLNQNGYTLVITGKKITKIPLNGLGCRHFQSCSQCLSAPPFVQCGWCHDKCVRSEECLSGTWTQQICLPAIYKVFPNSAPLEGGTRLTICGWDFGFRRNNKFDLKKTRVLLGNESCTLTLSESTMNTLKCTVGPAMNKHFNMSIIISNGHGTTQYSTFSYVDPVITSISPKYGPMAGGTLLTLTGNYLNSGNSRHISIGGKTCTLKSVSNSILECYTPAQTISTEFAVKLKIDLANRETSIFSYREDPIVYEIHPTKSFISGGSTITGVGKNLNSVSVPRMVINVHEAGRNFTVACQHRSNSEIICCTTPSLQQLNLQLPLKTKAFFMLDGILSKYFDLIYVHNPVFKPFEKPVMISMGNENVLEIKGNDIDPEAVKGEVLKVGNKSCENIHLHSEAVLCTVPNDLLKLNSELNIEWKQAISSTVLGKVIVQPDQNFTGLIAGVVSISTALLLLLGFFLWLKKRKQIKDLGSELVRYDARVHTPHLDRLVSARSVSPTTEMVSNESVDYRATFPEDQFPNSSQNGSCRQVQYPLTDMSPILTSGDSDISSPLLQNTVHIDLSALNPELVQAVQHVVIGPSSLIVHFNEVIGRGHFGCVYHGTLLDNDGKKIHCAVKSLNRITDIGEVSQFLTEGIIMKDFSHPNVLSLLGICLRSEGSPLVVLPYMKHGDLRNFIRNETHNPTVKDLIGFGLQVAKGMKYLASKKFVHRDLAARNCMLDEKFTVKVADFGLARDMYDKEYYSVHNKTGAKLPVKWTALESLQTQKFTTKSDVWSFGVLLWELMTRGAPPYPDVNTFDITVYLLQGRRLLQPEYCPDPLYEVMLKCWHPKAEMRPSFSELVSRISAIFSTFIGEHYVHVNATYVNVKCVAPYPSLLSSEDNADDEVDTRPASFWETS
Chain of PDGFRB (P09619 33-1106): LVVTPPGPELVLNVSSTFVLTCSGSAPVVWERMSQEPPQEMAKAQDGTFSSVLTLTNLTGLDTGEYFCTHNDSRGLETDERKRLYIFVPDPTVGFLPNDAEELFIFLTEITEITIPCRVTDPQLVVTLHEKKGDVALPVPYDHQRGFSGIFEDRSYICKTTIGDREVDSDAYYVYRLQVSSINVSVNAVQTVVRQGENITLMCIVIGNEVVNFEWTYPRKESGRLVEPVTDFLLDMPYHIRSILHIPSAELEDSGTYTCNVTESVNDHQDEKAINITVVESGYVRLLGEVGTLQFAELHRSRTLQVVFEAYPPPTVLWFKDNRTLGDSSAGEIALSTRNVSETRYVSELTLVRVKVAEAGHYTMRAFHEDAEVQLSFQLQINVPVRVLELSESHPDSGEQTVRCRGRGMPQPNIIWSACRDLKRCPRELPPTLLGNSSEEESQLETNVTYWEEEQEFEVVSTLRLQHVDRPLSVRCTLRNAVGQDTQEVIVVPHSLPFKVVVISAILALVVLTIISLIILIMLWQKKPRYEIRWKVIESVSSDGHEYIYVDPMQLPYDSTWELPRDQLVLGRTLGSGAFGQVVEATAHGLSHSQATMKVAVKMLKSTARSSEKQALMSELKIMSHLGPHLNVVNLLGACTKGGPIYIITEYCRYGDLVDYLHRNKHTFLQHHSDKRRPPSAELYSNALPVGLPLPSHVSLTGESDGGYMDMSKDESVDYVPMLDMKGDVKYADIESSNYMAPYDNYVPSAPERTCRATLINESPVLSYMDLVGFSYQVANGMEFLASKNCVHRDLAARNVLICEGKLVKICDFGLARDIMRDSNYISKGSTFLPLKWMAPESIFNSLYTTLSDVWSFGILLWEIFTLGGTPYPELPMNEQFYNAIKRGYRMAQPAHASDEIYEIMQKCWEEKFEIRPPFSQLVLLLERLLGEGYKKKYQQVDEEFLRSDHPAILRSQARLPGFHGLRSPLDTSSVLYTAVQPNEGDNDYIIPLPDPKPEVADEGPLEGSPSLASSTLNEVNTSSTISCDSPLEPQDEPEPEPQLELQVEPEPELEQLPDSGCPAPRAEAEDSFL
Chain of FYN (P06241 whole entry): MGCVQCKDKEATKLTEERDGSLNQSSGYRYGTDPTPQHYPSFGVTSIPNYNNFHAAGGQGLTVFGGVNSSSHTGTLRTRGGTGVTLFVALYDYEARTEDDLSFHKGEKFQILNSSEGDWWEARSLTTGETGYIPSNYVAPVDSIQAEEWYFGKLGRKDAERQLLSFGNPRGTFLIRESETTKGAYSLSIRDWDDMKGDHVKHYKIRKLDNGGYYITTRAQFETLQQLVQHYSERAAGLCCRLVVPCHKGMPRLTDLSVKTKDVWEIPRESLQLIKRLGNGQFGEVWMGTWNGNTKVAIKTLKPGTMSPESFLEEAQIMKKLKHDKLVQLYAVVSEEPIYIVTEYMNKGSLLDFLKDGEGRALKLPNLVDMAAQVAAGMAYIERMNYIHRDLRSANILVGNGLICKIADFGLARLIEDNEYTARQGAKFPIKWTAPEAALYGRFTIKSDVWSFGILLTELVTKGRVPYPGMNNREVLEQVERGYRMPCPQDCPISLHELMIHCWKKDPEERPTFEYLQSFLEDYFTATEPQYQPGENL

Structure (SMILES)	remaining activity at 10 µM [1] [%]	remaining activity at 10 µM [2] [%]	remaining activity at 10 µM [3] [%]	remaining activity at 10 µM [4] [%]	remaining activity at 10 µM [5] [%]	Percent control [6] [%]
C#Cc1cccc(Nc2ncnc3cc(OCCOC)c(OCCOC)cc23)c1 [Erlotinib]	9.9	12.3	21.9	10.7	100	–
Cc1ccc(NC(=O)c2ccc(CN3CCN(C)CC3)cc2)cc1Nc1nccc(-c2cccnc2)[n+]1[Pt-2]1([Cl])[NH2+]C2CCCCC2[NH2+]1 (stereo not drawn) [1b, oxaliplatin-imatinib]	–	–	–	–	–	89
COc1cc2c(Nc3ccc(Br)cc3F)ncnc2cc1OCC1CCN(C)CC1 [Vandetanib, reference compound]	2.8	–	–	7.8	3.5	–
C#Cc1cccc(Nc2c3cc(OCCOC)c(OCCOC)cc3nc[n+]2[Pt@SP2-2]([NH3+])([NH3+])[Cl])c1 [2a, cisplatin-erlotinib]	–	–	–	–	–	95
Cc1ccc(NC(=O)c2ccc(CN3CCN(C)CC3)cc2)cc1Nc1nccc(-c2cccnc2)n1 [Imatinib, reference compound]	–	0.1	100	–	–	–
